In patent publication US20240082128A1, “COMPOSITION FOR USE IN DEGRADATION OF BIOFILM OR PREVENTION OF BIOFILM FORMATION” (Pharmiva AB, priority 2021, published 2024):
“Also recorded” adds a separate entry of the source.

Legend:
[1] = test system: biofilm; details: for one hour; cited from earlier work
[2] = test system: microorganisms; details: 5 nM hydrogen peroxide (endogenous stress); cited from earlier work
[3] = Viscosity of polymer gel used as biofilm extracellular matrix proxi (degradation); details: 10 g formulation added to gel, viscosity up to 24 hours
Description: Three different gels were used in the study reported in Example 2 below: 2% natrosol gel, 2% alginate gel and 6% pectin gel. FeSO4 (10 mM) was added to the gels during manufacturing and acts as a catalysator and by mimic oxidation potential in biological fluids.
The alginate and Natrosol gel were manufactured by adding sodium Alginate/Natrosol to the water solution containing FeSO4, during stirring. The pectin gel was manufactured by heating the water to 80° C. and add pectin as well as FeSO4 during stirring. After manufacture, 6 glass vials (60 mL) were filled with 40 mL of the gel.
In general, biofilms consist of polymers consisting of polysaccharides, most commonly alginates, extracellular proteins, DNA and small amounts of surfactants and lipid. In this experiment, commercially available polymers were used as proxi (i.e. a measurement of one physical quantity (polymer) as an indicator of the value of another (biofilm)) to model the extracellular matrix of biofilm. […]
For each test, following method was used: First, viscosity of the pure gel was measured. […] Viscosity was measured immediately before addition of the formulation or composition, immediately after addition of the formulation or composition, 10 min, 1 hour and 24 hours addition of the formulation or composition. […]

[4] = test system: Candida albicans (ATCC 90028) biofilm; test: Biofilm viability, plate count method; format: cell-based; details: C. albicans; 48 h biofilm exposed 24 h at 37° C.; mean ± SD
Description: (§1) Gardnerella vaginalis (ATCC® 14018™) and Candida albicans (ATCC® 90028™) were grown on microtiter plates for 48 h at 37° C.±2° C. before being rinsed with PBS to remove planktonic cells. Thereafter the biofilms of the two microorganisms were exposed to the bulk cream and its components (as well as clinical comparators Metronidazole gel and Monistat 7) for 24 h at 37° C.±2° C. The efficacy of formulations in removing biofilm biomass of G. vaginalis and C. albicans was assessed using a crystal violet staining assay and the efficacy of formulations to decrease biofilm viability of G. vaginalis and C. albicans was assessed by plate count method.

[5] = test system: Gardnerella vaginalis (ATCC 14018) biofilm; test: Biofilm viability, plate count method; format: cell-based; details: G. vaginalis
Description: as §1

[6] = test system: Candida albicans (ATCC 90028) biofilm; test: Biofilm biomass removal, crystal violet staining assay; format: cell-based; details: C. albicans
Description: as §1

[7] = test system: Gardnerella vaginalis (ATCC 14018) biofilm; test: as above; format: cell-based; details: G. vaginalis
Description: as §1

[8] = test system: Candida; details: cited from earlier work
[9] = test system: Gardnerella vaginalis; details: cited from earlier work
[10] = test system: Lactobacillus; details: used for treatment of bacterial vaginosis; cited from earlier work
[11] = 48 h biofilm exposed 24 h at 37° C.
[12] = 48 h biofilm exposed 24 h at 37° C., mean ± SD, n = 3

OO [hydrogen peroxide]
Concentration needed as sole agent to reduce the amount of biofilm by 85% [1]: 0.5 % w/w
Effect on biofilm formation [2]: biofilm formation was promoted

lactic acid [0.3% lactic acid solution with 0.7% NaOH]
Decrease in viscosity of polymer gel with time (polymer degradation) ([3]; Alginate gel, FIGS. 1B, 2B): viscosity decrease was observed over time
Decrease in viscosity of polymer gel with time (polymer degradation) ([3]; Natrosol gel, FIGS. 1A, 2A): viscosity decrease was observed over time

OO [0.3% H2O2 aq. sol., hydrogen peroxide]
Biofilm viability [4]: 2.90 ± 0.130 Log10 CFU/mL
Biofilm viability ([5]; 48 h biofilm exposed 24 h at 37° C., mean ± SD): 2.47 ± 0.119 Log10 CFU/mL
Decrease of biofilm viability (in words) ([5]; FIG. 4B): efficiently decrease the viability
Removal of biofilm biomass (in words) ([6]; 24 hours incubation, FIG. 3A): efficiently remove biomass
Biofilm forming potential [6, 11]: Medium
Biofilm biomass, optical density at 570 nm [6, 12]: 0.46 ± 0.11
Removal of biofilm biomass (in words) ([7]; 24 hours incubation, FIG. 3B, listed as 0.3% H2O2 solution): efficiently diminish the biofilm biomass; also recorded: efficiently remove biomass
Biofilm forming potential [7, 11]: Low/no
Biofilm biomass, optical density at 570 nm [7, 12]: 0.27 ± 0.002

CCCCCCCCCCCC(=O)OCC(O)CO (stereo not shown) [glycerol monolaurate]
Inhibitory effect [8]: inhibitory effect
Inhibitory effect [9]: inhibitory effect
Influence on Lactobacillus count [10]: does not influence Lactobacillus count
